In patent US12310946B2, “Pharmaceutical composition for oral administration of edaravone and method of administering same” (MITSUBISHI TANABE PHARMA CORPORATION, priority 2020, dated 2025):

Assay: in vitro
Settings: human, Caco-2, pH 7.4
Experimental: Caco-2 cells were seeded on a 24-well plate, cultured at 37° C. for 21 to 23 days in a CO2 incubator, and then a Caco-2 cell monolayer membrane permeability test was conducted. After checking the membrane resistance value of the cell layer after the culture, the culture medium in the plate was replaced with HBSS (pH 7.4). […] For the control compounds, [^3H]propranolol as a high membrane permeability control and [^14C]mannitol as a low membrane permeability control were used.

CC(C)NCC(O)COc1cccc2ccccc12 (centres unmarked) [[^3H]Propranolol, [^3H]propranolol]
Papp A→B at 2 h, 10 μmol/L: 28.9 ± 1.1 ×10⁻⁶ cm/s

OC[C@@H](O)[C@@H](O)[C@H](O)[C@H](O)CO [[^14C]Mannitol, [^14C]mannitol]
Papp A→B at 2 h, 10 μmol/L: 0.53 ± 0.007 ×10⁻⁶ cm/s
